Source: patent US11028364B2, “Compositions and methods for modulating an immune response” (President and Fellows of Harvard College, priority 2015, dated 2021)

Columns and labels:
Format in all cases: cell-based, mice
[1] = system: B cells cultured with TFH cells; experiment: in vitro cultures of B and TFH cells (activated culture) with addition of pathway/metabolic inhibitors; settings: inhibitor added to activated culture (B + TFH), anti-CD3/IgM
Experimental: (§1) To determine the mechanisms of how TFH and B cells are altered during direct TFR suppression, an in vitro suppression assay in which TFR cells are cultured with TFH and B cells was utilized. See e.g., Sage et al., J Clin Invest 124, 5191-5204 (2014); Sage et al., Immunity 41, 1026-1039 (2014); Sage et al., Methods Mol Biol 1291, 151-160 (2015). For these assays, FoxP3IRES-GFP mice were immunized with NP-OVA (emulsified in CFA) subcutaneously and isolated draining lymph nodes 7 days later. TFR (sorted as CD4+ICOS+CXCR5+CD19− FoxP3+) cells were added to co-cultures of B (sorted as CD19+) and TFH (sorted as CD4+ICOS+CXCR5+CD19−FoxP3) cells along with anti-CD3 and anti-IgM for 2 to 6 days (FIG. 1A, FIG. 36A, and FIG. 36B).
To determine if suppressing Myc in activated B cells could recapitulate TFR suppression, in vitro suppression assays were performed in which B cells were cultured with TFH cells, TFH and TFR cells, or TFH cells and the Myc inhibitor 10058-F4 (F4w).
The mTOR pathway promotes protein synthesis during activation and has been linked to enhancing cellular metabolism. […] In vitro cultures of B and TFH cells were performed along with either the mTORc1 inhibitor rapamycin or TFR cells. […] Akt can act both upstream and downstream of mTOR to mediate activation signaling.
To determine if inhibiting glycolysis could recapitulate TFR suppression, cultures of B and TFH cells were performed with the addition of 2-deoxyglucose (2DG), a glucose analog that blocks glycolysis.
Therefore, whether inhibitors of purine metabolism could recapitulate TFR suppression in vitro was determined.

[2] = system: B cells cultured with TFH and TFR cells (suppressed cultures); experiment: in vitro TFR suppression assay (B, TFH and TFR cells) with addition of cytokine; settings: for amount of secreted antibody in culture supernatants: compared to activated cultures
Experimental: as §1, with “36B). After 6 days of co-culture of B and TFH cells, robust upregulation of the GC B cell marker GL7 was found as well as class switch recombination to IgG1, the predominant class switched isotype in this model (FIG. 1B). In addition, robust quantities of secreted IgG were found in the culture supernatant when B cells were cultured with TFH cells, but not when B cells were cultured alone. […] CD4^+CXCR5^−ICOS^−Foxp3^+ Treg cells were not able to suppress as efficiently as TFR cells did (FIG. 15). […] Therefore, this culture system is a robust model to study TFR suppression of TFH and B cells.” for “36B).”
It is possible that B cell function genes and multiple metabolic pathways cooperate to induce class switch recombination and antibody production in B cells. […] Therefore, to determine ways to overcome suppressed B cells therapeutically, it is possible that both B cell genes and metabolism would need to be energized to overcome suppression. […] When IL-21 was added to suppression assays, the attenuation in proliferation of B cells mediated by TFR cells was rescued (FIG. 11A).
Since metabolism is essential to facilitate B cell effector functions and is regulated by TFR cells, the metabolic potential of B cells was assessed in suppressed cultures with the addition of IL-21. […] Similarly, Glut1 expression on TFH cells was rescued when IL-21 was added to suppressed cultures. […] Therefore, addition of IL-21 can rescue the glycolytic function of suppressed B cells. It is possible that IL-21 rescues antibody production primarily through enhancing metabolism. To determine if enhanced glycolysis was required for the IL-21 rescue of antibody production in suppressed cultures, glycolysis was blocked to determine if antibody responses could still be rescued in the absence of enhanced metabolism. […] Therefore, IL-21 renders B cells resistant to TFR mediated suppression primarily by enhancing metabolism.
Whether IL-21 restored antibody production by acting directly on B cells was determined. Suppression assays were performed using B cells lacking the receptor for IL-21 (Il21r−/−). […] Since upregulation of GL7 is a robust indicator of B cell activation, its expression in suppressed cultures containing either Il21r+/+ B cells or Il21r−/− B cells and supplemented with IL-21 was compared.
Since IL-21 could be affecting the TFH, B or TFR cell in the suppressed culture, whether the rescue of suppressed metabolism could be due to a combined effect of stimulating B cells and inhibiting TFR suppression (by acting directly on the TFR cell) was determined. […] Therefore, IL-21 rescue of TFR cell suppression of B and TFH cells is the result of modulation of B cells as well as inhibiting TFR cells.

[3] = system: B cells from suppressed cultures; experiment: RNA-seq transcriptional analysis of B cells from suppressed cultures supplemented with IL-21
Experimental: In order to determine how B and TFH cells effector states are altered during TFR mediated suppression assays were performed followed by RNA-seq transcriptome analysis. In these experiments B and TFH cells (from immunized FoxP3-IRES-GFP mice) were cultured with or without TFR cells (from immunized ActinCFP FoxP3-IRES-GFP mice) for 6 days in the presence of NP-OVA (the same antigen used to generate the B, TFH and TFR cells). After 4 days of culture, B (sorted as CD19+IA+CD4−) and TFH (sorted as CD4+IA−CD19−CFP−) cells were sorted from the “activated” culture (TFH and B cells alone) or from the “suppressed” culture (TFH, B and TFR cells) and RNAseq transcriptional analysis was performed (FIG. 2A, FIG. 37A and FIG. 37B).
In order to determine which B cell function genes were rescued at the transcriptional level, RNA-seq transcriptional analysis was performed on B cells from activated cultures, from suppressed cultures, and suppressed cultures supplemented with IL-21. […] In the case of Aicda and Pou2af1, it is possible that this may be due to the epigenetic modification of these gene loci by TFR cells, however this was not tested directly.
Therefore, IL-21 overcomes TFR suppression by stimulating B cells as well as metabolic pathways.

[4] = cytokine added to suppressed culture
[5] = cytokine added to suppressed cultures
[6] = Il21r−/− B cells, suppressed cultures plus IL-21
[7] = suppressed cultures with vs without IL-21

Molecule: O=CC[C@@H](O)[C@H](O)[C@H](O)CO [2DG, 2-deoxyglucose]
- secreted antibody / antibody production in culture supernatants [1]: robust suppression

Molecule: CCc1ccc(/C=C2/SC(=S)NC2=O)cc1 [10058-F4]
- class switch recombination (IgG1+GL7+ B cells) [1]: slight diminishment
- secreted antibody / antibody production in culture supernatants [1]: robustly attenuated

Molecule: Cn1cnc([N+](=O)[O-])c1Sc1ncnc2nc[nH]c12 [AZA, azathioprine]
- class switch recombination (IgG1+GL7+ B cells) [1]: potently suppressed
- secreted antibody / antibody production in culture supernatants [1]: robust suppression

Molecule: CN(Cc1cnc2nc(N)nc(N)c2n1)c1ccc(C(=O)N[C@@H](CCC(=O)O)C(=O)O)cc1 [MTX, Methotrexate]
- class switch recombination (IgG1+GL7+ B cells) [1]: potently suppressed
- secreted antibody / antibody production in culture supernatants [1]: robustly suppresses

Molecule: IL-6: another Stat3 signaling cytokine
- amount of secreted antibody in culture supernatants [2, 4]: able to rescue
- lactate production in culture supernatants [2, 5]: substantially (although not completely) rescue

Molecule: IL-21: cytokine essential in the germinal center reaction
- GL7 expression in B cells ([2]; Il21r+/+ B cells, suppressed cultures plus IL-21): restored
- GL7 expression in B cells [2, 6]: not
- antibody responses (IgG1+GL7+ B cells) [2, 6]: no evidence was found that antibody responses were restored
- number of B cells [2, 6]: did not abolish the increase
- restoration of CSR [2, 6]: prevent the restoration
- restoration of Glut1 expression on B cells [2, 6]: prevent the restoration
- proliferation of B cells (Cell Trace Violet dilution) ([2]; cytokine added to suppressed culture (B + TFH + TFR)): rescued
- class switch recombination (IgG1+GL7+ B cells) ([2]; cytokine added to suppressed culture, compared to activated culture): much higher
- amount of secreted antibody in culture supernatants [2, 4]: mostly rescued
- Glut1 expression on B cells [2, 5]: completely rescued
- Glut1 expression on TFH cells [2, 5]: rescued
- glucose consumption in the culture [2, 5]: almost completely rescued
- lactate production in culture supernatants [2, 5]: substantially (although not completely) rescue
- rescue of antibody production when glycolysis is blocked ([2]; suppressed cultures plus IL-21 with addition of 2-deoxyglucose (2DG)): not being able to rescue suppression
- Glut1 expression in TFR cells [2, 7]: higher
- intracellular Ki67 staining in TFR cells [2, 7]: much less
- genes differentially expressed on suppression that are rescued (RNA-seq) ([3]; 12 genes differential in both suppressed vs IL-21 rescue and suppressed vs activated): only Ighg1 and Ighg2c were ‘rescued’
- Aicda, Xbp1 and Pou2af1 transcripts (RNA-seq) ([3]; suppressed plus IL-21 cultures): did not show any evidence of rescue
- metabolic pathways (ssGSEA on RNA-seq) ([3]; suppressed plus IL-21 cultures): some rescue of many metabolic pathways
- B cell function gene transcripts (RNA-seq) ([3]; suppressed vs. suppressed plus IL-21 cultures): only transcripts for the individual IgG isotypes (Ighg1, Ighg2c, Ighg2b, Igha) showed evidence of significant upregulation

B1: IL-4: cytokine added to suppressed cultures (protein, UniProt P05112 25-153, looked up)
Interleukin-4: HKCDITLQEIIKTLNSLTEQKTLCTELTVTDIFAASKNTTEKETFCRAATVLRQFYSHHEKDTRCLGATAQQFHRHKQLIRFLKRLDRNLWGLAGLNSCPVKEANQSTLENFLERLKTIMREKYSKCSS
- amount of secreted antibody in culture supernatants [2, 4]: did not occur
